According to patent US20130023645A1 (priority 2006, published 2013):
“And” between values parts separate entries of the source, which are not always exact repeats. Equal values may be shown once.

Target: T1, neuronal-type nicotinic receptors (Bos taurus, UniProt Q07263+Q8SPU6)
T1 construct: monolayer cultures of bovine adrenal chromaffin cells; endogenous in cells; host or cells: bovine adrenal chromaffin cells (primary monolayer cultures)
Type: cell-based, bovine

T1 sequence (Q07263 22-495): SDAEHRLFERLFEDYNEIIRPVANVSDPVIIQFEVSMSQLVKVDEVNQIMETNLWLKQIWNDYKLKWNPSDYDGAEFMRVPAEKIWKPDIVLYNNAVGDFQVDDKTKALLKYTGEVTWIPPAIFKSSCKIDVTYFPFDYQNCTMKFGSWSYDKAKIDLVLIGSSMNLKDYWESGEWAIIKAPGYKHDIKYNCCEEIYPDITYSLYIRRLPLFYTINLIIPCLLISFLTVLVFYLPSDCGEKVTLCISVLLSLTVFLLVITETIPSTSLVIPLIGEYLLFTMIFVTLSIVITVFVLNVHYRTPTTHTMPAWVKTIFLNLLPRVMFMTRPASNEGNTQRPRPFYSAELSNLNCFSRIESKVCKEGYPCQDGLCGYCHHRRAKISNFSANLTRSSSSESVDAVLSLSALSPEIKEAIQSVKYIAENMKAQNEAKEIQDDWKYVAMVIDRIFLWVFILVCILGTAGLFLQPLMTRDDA
T1 sequence (Q8SPU6 20-496): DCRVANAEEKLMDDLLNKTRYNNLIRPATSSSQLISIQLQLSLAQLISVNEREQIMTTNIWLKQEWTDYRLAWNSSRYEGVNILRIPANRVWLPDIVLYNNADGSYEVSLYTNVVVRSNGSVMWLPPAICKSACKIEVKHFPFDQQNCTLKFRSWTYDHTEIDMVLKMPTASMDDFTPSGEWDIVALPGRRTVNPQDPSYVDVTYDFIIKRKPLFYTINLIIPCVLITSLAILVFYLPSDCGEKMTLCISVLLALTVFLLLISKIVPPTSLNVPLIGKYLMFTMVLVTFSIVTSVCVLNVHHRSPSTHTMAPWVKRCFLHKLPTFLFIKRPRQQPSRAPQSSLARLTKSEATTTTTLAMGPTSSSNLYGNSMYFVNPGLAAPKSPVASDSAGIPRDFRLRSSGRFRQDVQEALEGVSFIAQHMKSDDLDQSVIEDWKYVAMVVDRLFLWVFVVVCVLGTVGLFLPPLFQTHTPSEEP

CN1CCCC1c1cccnc1 (centres unmarked) [NICOTINE, nicotine, reference compound]
Adrenaline Release, mean: 4.46%
Adrenaline Release, single determinations (1st-4th): 4.31% and 4.52% and 4.48%
Noradrenaline Release, mean: 6.85%
Noradrenaline Release, single determinations (1st-4th): 6.62% and 6.89% and 6.99%
noradrenaline released, basal release (0.72%) subtracted: 6.13%
